PMC11513920, “Building Metabolically Stable and Potent Anti-HIV Thioether-Lipid Analogues of Tenofovir Exalidex: A thorough Pharmacological Analysis” (Journal of Medicinal Chemistry, 2024)
Where “and” joins values, the source holds several entries; their conditions need not be identical. Equal values may be shown once.

Columns and labels:
[1] = Human liver microsome stability; conditions: human, microsomes
[2] = Mouse tissue (liver, kidney, brain) pharmacokinetics after oral dose; assay type: in vivo, male C57BL/6 mice; conditions: for AUC(0-t) at 24 h: read-out: AUC0–24h
Protocol: (§1) To compare the in vivo PK profiles to TXL and our previously reported drug lead 1 (Tables S19 and S26),[39] one group of male C57BL/6 mice were administered a single oral dose (p.o., 10 mg/kg) of 2a, 16g, or 16h (refer to Experimental Methods). Additionally, a separate group of mice were given a single intravenous dose (i.v., 3 mg/kg) of each prodrug to obtain plasma clearance (Cl), volume of distribution (Vd), and oral bioavailability data. Blood was sampled at 8 time points over 8 h (i.v.) or 24 h (p.o.) postdose, and plasma was isolated via centrifugation. Tissues (liver, kidney, and brain) were also harvested and homogenized at 3 time points over 24 h after oral dose. The concentrations of prodrug and TFV metabolite in each of these samples was then quantified using LC–MS/MS methodology.
(§2) Healthy male C57BL/6 mice (8–12 weeks old) weighing 20–30 g were procured from Global, India. Three mice were housed in each cage. Temperature and humidity were maintained at 22 ± 3 °C and 30–70%, respectively, and illumination was controlled to provide for 12 h light and 12 h dark cycles. Temperature and humidity were recorded by an autocontrolled data logger system. All animals were provided a laboratory rodent diet (Envigo Research private Ltd., Hyderabad). Reverse osmosis H2O treated with ultraviolet light was provided ad libitum.
(§3) Male mice were divided into two groups (n = 18 total, n = 9 per treatment group, n = 3 per time point, sparse sampling). One group was intravenously administered a solution of 2a, 16g, and 16h in 10% PEG-300, 10% Solutol HS-15, and 80% saline at 3 mg/kg with a dosing volume of 5 mL/kg. The second group was administered a solution of 2a, 16g, and 16h in 10% EtOH and 90% olive oil at 10 mg/kg via oral gavage with a dosing volume of 10 mL/kg.
(§4) Blood samples (approximately 60 μL) were collected from retro-orbital plexus under light isoflurane anesthesia such that the samples were obtained predose, as well as at eight time points post dose: 0.1, 0.25, 0.5, 1, 2, 4, 6, and 8 (i.v.) and 0.25, 0.5, 1, 2, 4, 8, 12, and 24 h (p.o.). Immediately after blood collection, plasma samples were harvested by centrifugation at 4000 rpm and 4 °C for 10 min and stored at −70 °C until LC–MS/MS analysis. Following blood collection from p.o. group, liver, kidney, and brain samples were collected (n = 3 per treatment group per time point) at 1, 4, and 24 h post dose. After isolation, tissue samples were rinsed three times with ice-cold saline and dried with blotting paper. Next, the tissue samples were homogenized using ice-cold PBS (pH = 7.4), and the resulting homogenates were stored below −70 °C until LC-MS/MS analysis. The total homogenate volume was 3 times the brain weight and 5 times the liver and kidney weight.
(§5) Areas under the concentration–time curves (AUC0–8h and AUC0–24h) were calculated via the linear trapezoidal rule[65] using GraphPad Prism v9. Furthermore, terminal elimination rate constants k were determined using linear regression (slope = −k) of the terminal portion of semilog-transformed concentration–time curves (Figures S44, S45, S47, S48, S50, and S51).

HepaRG cells = assay: HepaRG cellular metabolic stability
[3] = Mouse plasma pharmacokinetics after oral dose; assay type: in vivo, male C57BL/6 mice
Protocol: as §1, §2, §3, §4, §5

[4] = Mouse liver microsome stability; conditions: CD-1, mouse, microsomes
Protocol: Human liver microsomes (HLMs, 20 mg/mL) and CD-1 mouse liver microsomes (MLMs, 20 mg/mL) were purchased from Xenotech. NADPH was purchased from Sigma-Aldrich and prepared in 10 mM stock solutions of distilled H2O (Invitrogen UltraPure). […] Test compounds and positive controls were initially dissolved in MeOH to make 10 mM stock solutions. Sample solutions were then further diluted in 70/30 MeOH/H2O to 500 μM. Next, the reactions were prepared by mixing human or mouse liver microsomes (55 μL) with potassium phosphate buffer (100 mM, 928 μL) in 1.5 mL Eppendorf tubes. The test compounds (6.6 μL of 500 μM solution) were subsequently added to the suspensions, and the reaction mixtures were incubated at 37 °C for 5 min. Afterward, the liver microsome reactions were initiated with 110 μL of 10 mM NADPH and further incubated at 37 °C for the designated time course of the study. […] Each test compound was run in tandem with positive and negative control experiments for quality assurance. Positive control reactions were conducted at a final volume of 550 μL for a single run of each time point.
For both LM and plasma stability assays, each data point was analyzed in duplicate using in-between blank washes to avoid carry over and to equilibrate the column for the subsequent runs. Averages of these duplicate for individual compounds at each time point were then normalized to the data at 0 min, representing 100% test compound remaining or 0% metabolism. Half-lives (t1/2) were calculated by plotting ln of % test compound remaining versus time and performing linear regression to determine slope.
Metabolic Stability Assays
Liver Microsome Stability
Liver Microsome Stability Assay Setup Example
Quenching Mixture: 100 µL MeOH with ISTD (2 µM d5-7-ethoxycoumarin).
Final Volume After Quenching: 200 µL (100 µL from reaction mixture + 100 µL quencher
solution; ISTD final concentration of 1.0 µM).

[5] = male, C57BL/6, mouse, brain, po, p.o. 10 mg/kg, read-out: mean prodrug concentration in brain
[6] = male, C57BL/6, mouse, kidney, po, p.o. 10 mg/kg, read-out: mean prodrug concentration in kidney
[7] = male, C57BL/6, mouse, liver, po, p.o. 10 mg/kg, read-out: mean prodrug concentration in liver
[8] = male, C57BL/6, mouse, po, brain, prodrug, p.o. 10 mg/kg
[9] = male, C57BL/6, mouse, po, kidney, prodrug, p.o. 10 mg/kg
[10] = male, C57BL/6, mouse, po, liver, prodrug, p.o. 10 mg/kg
[11] = male, C57BL/6, mouse, po, plasma, prodrug, p.o. 10 mg/kg

C[C@H](Cn1cnc2c(N)ncnc21)OCP(=O)(O)OCCCSCCCCCCCCCCCCC1CCCCC1.N [16h]
remaining at 2 h, 3 μM ([1]; HLM % remaining, relative percent remaining of prodrug at 120 min): 85%
half-life at 3 μM ([1]; HLM t1/2, HLM 1 mg/mL, 3 μM compound, NADPH, 37 °C, 120 min course): > 120 min
TFV in brain tissue ([2]; brain, 1, 4 and 24 h after p.o. 10 mg/kg of prodrug, LLOQ 4.84 ng/mL (9.67 for 16h)): BLQ
concentration at 1 h [2, 5]: 16.1 ng/mL
concentration at 4 h [2, 5]: 8.39 ng/mL
concentration at 1 h [2, 6]: 279 ng/mL
concentration at 4 h [2, 6]: 795 ng/mL
concentration at 24 h ([2]; male, C57BL/6, mouse, kidney, po, p.o. 10 mg/kg, 24 h, read-out: mean prodrug concentration in kidney): 123 ng/mL
concentration at 1 h [2, 7]: 1540 ng/mL
concentration at 4 h [2, 7]: 2150 ng/mL
concentration at 24 h ([2]; male, C57BL/6, mouse, liver, po, p.o. 10 mg/kg, 24 h, read-out: mean prodrug concentration in liver): 32.4 ng/mL
Cmax at 24 h [2, 8]: 16.2 ng/mL
Tmax at 24 h [2, 8]: 1 h
AUC(0-t) at 24 h [2, 8]: 36.8 ng·h/mL
Cmax at 24 h [2, 9]: 795 ng/mL
AUC(0-t) at 24 h [2, 9]: 10800 ng·h/mL
Cmax at 24 h [2, 10]: 2150 ng/mL
AUC(0-t) at 24 h [2, 10]: 27300 ng·h/mL
mean prodrug concentration in brain ([2]; p.o. 10 mg/kg, 24 h, BLQ = below limit of quantitation): BLQ
HepaRG t1/2 (HepaRG cells; after 3 h loading at 20 μM, 37 °C): 71.0 ± 0.4 min
HepaRG Clint,u (HepaRG cells; calculated from cellular t1/2): 17.8 μL/min/million cells
bioavailability ([3]; male, C57BL/6, mouse, plasma, oral, p.o. 10 mg/kg vs i.v. 3 mg/kg, read-out: %F (oral bioavailability)): 55%
bioavailability at 24 h ([3]; male, C57BL/6, mouse, plasma, po, p.o. 10 mg/kg vs i.v. 3 mg/kg, read-out: %F (oral bioavailability)): 54.9%
concentration at 0.25 h ([3]; male, C57BL/6, mouse, plasma, po, p.o. 10 mg/kg, 0.25 h, read-out: mean prodrug concentration in plasma): 48.9 ng/mL
concentration at 0.5 h ([3]; male, C57BL/6, mouse, plasma, po, p.o. 10 mg/kg, 0.5 h, read-out: mean prodrug concentration in plasma): 79.1 ng/mL
concentration at 1 h ([3]; male, C57BL/6, mouse, plasma, po, p.o. 10 mg/kg, 1 h, read-out: mean prodrug concentration in plasma): 140 ng/mL
concentration at 2 h ([3]; male, C57BL/6, mouse, plasma, po, p.o. 10 mg/kg, 2 h, read-out: mean prodrug concentration in plasma): 195 ng/mL
concentration at 4 h ([3]; male, C57BL/6, mouse, plasma, po, p.o. 10 mg/kg, 4 h, read-out: mean prodrug concentration in plasma): 59.2 ng/mL
concentration at 8 h ([3]; male, C57BL/6, mouse, plasma, po, p.o. 10 mg/kg, 8 h, read-out: mean prodrug concentration in plasma): 36.1 ng/mL
concentration at 12 h ([3]; male, C57BL/6, mouse, plasma, po, p.o. 10 mg/kg, 12 h, read-out: mean prodrug concentration in plasma): 38.2 ng/mL
concentration at 24 h ([3]; male, C57BL/6, mouse, plasma, po, p.o. 10 mg/kg, 24 h, BLQ = below LLOQ (0.58 ng/mL 2a, 0.62 ng/mL 16g), read-out: mean prodrug concentration in plasma): 0.87 ng/mL
half-life ([3]; male, C57BL/6, mouse, po, plasma, p.o. 10 mg/kg): 184 min
Cmax at 24 h [3, 11]: 195 ng/mL
Tmax at 24 h [3, 11]: 2 h
AUC(0-t) at 24 h ([3]; male, C57BL/6, mouse, po, plasma, prodrug, p.o. 10 mg/kg, read-out: AUC0–24h): 1070 ng·h/mL
mean TFV concentration in plasma ([3]; p.o. 10 mg/kg of prodrug, 0.25 h, LLOQ 4.84 ng/mL): BLQ
Vd ([3]; plasma, p.o. 10 mg/kg): 22.8 L/kg
k (terminal elimination rate constant) ([3]; plasma, p.o. 10 mg/kg, 10 mg/kg): 0.2258 and 0.226
half-life at 3 μM [4]: > 120 min
remaining at 2 h, 3 μM [4]: > 95%
